Measurements published in EP2565188A1, “Novel photoactivatable paclitaxel derivatives and uses thereof, in particular in cellbiology and cancer treatment” (Max-Planck-Gesellschaft zur Förderung der Wissenschaften …, priority 2011, dated 2013).

Tests used:
[1] = test system: HeLa cells; test: Live cell imaging of the microtubule network (Tubulin Tracker / DRAQ5, CLSM); assay type: cell-based, Human; conditions: 24 h
Protocol: (§1) Human cervix carcinoma cells, HeLa cells (#ACC57, DMSZ, Germany), were cultured in DMEM medium (Invitrogen) supplemented with 10% fetal calf serum (FCS, Gibco) in a humidified incubator at 37°C/5%CO2.
In order to visualize the influence of the PTX derivatives in the microtubule network of the cell, a live cell microscopy analysis of HeLa cells after incubation with 10 µM PTX derivatives for 24 hours was performed.
Specifically, microtubules and nuclei of HeLa cells were fluorescently stained with Tubulin Tracker (Invitrogen) and DRAQ5 (biostatus, United Kingdom) respectively, and imaged by a Leica TCS SP5 confocal laser scanning microscopy (CLSM). 30x10^4 HeLa cells were seeded in 8-well chamber slides (Lab-Tek, nunc, Germany) and the culture medium was replaced after ~16 h by compound supplemented medium (250 µL, DMEM, 10% FCS, 1% DMSO) or medium without compound (DMEM, 10% FCS, 1% DMSO) as a specific control. After 24h, cells were carefully washed with Hank's Buffered Saline Solution (HBSS, with Ca^2+ and Mg^2+, Invitrogen) and the buffer was replaced by a staining solution containing 250 nM Tubulin Tracker (Invitrogen) and 5 µM DRAQ5. The cells were stained for 30 min at 37°C/5% CO2 in a humidified incubator. The staining solution was replaced by HBSS and the cells were directly imaged with a 100x plan apochromat (1.4 NA) oil immersion objective on the CLSM system equipped with a CO2 incubator and a temperature control. Tubulin Tracker was excited with an argon laser (488 nm) and the emission was detected by 500-580 nm. DRAQ5 was excited with a HeNe laser (633 nm) and the emission was detected by 650-730 nm. The images have a voxel height and width of 90 nm. Bright field images grabbed with an Olympus IX-70 inverted microscope with a 20x phase contrast objective. Image processing performed with Leica LAS AF lite and ImageJ (Fiji).

[2] = Solubility test of 10 µM solutions in 1:1000 DMSO:PIPES buffer; assay type: physicochemical
Protocol: 10 mM solutions of PTX derivatives in DMSO were prepared. All substances were soluble in DMSO at this concentration. 10 µM solutions of were obtained by 1:1000 dilution of the stock solution into 80 mM PIPES buffer pH 6.8, containing 2 mM MgCl2 and 1 mM EGTA. Table A: solubility test of 10 µM solutions of PTX derivatives in 1:1000 DMSO:PIPES buffer

[3] = Photocleavage study: irradiation at 360 nm, composition by HPLC; assay type: physicochemical; conditions: 1 mM, 5% water in acetonitril, share of the labelled species
Protocol: The photolysis of the compounds 2'-Nvoc-PTX and 2',7-bisNvoc-PTX was followed by UV and HPLC analysis of the correspondent solutions after exposure to light at λmax = 360 nm (2.7 mW/cm^2).
3 ml of a 1 mM solution of caged PTX in acetonitrile containing 5% water was placed into a quartz cuvette and was exposed at 360 nm for different irradiation times. Aliquots of 50 µl were taken after various irradiation times, and each aliquot was splitted in two parts. 20 µl were diluted to 400 µl to obtain 50 µM solution for UV-Vis characterisation. The 30 µl left from each aliquot were injected into the HPLC (20 µl loop, analytical column) in order to estimate the composition of the irradiated mixture.
Photocleavage of compound 2',7-bisNvoc-PTX was expected to yield the mono-substituted species 2'-Nvoc-PTX and 7-Nvoc-PTX as intermediates that can be further photolyzed to afford free PTX. In fact, HPLC analysis (Fig. 1) confirmed the presence of 2'-Nvoc-PTX (retention time, r.t.= 16.7 min) and 7-Nvoc-PTX (r.t. = 18.2 min) together with the starting compound 2',7-bisNvoc-PTX (r.t. = 21.3 min) and the fully deprotected PTX (r.t. = 11.1 min). The ratio of these compounds within the composition of the irradiated mixture changes with the exposure dose. Fig. 2 and Table B below show the compositional evolution of the mixture with increasing irradiation time as obtained by HPLC analysis. […] However, the influence of other structural factors in the photolytic mechanism cannot be ruled out. Compound 7-Nvoc-PTX could also be isolated from the irradiated mixture in milligram scale. Table B. Molar composition of a solution of 2',7-bisNvoc-PTX (1 mM, 5% water in acetonitril) after different irradiation times, as determined by analysis of HPLC graphs (Fig. 2)

[4] = test system: HeLa cells; assay type: cell-based, Human; conditions: 48 h
Protocol: as §1
In order to evaluate the bioactivity of the caged PCT derivatives, their cytotoxicity was tested in vitro using HeLa cells. Cells were incubated with PTX and caged PTX derivatives at concentrations between 0.01 and 10 µM.
The effect of PTX and derivatives on cell vitality was measured in a combined assay determining cytotoxicity and cell number by propidium iodide (PI) staining. HeLa cells (2x10^4 cells/well) were diluted in cell culture medium (DMEM, 10 % FCS) and seeded in 96 well-plates (black plate, clear bottom, corning, Amsterdam, Netherlands). The culture medium was replaced after ~16h by compound supplemented medium (200 µL, DMEM, 10 % FCS, 1 % DMSO) or medium without compound (DMEM, 10 % FCS, 1 % DMSO) as a specific control. After 48 h, dead cells with permeable cell membranes were stained with PI ([…], 15 min at 37°C, 5% CO2) and the PI fluorescence intensity was measured with a fluorescence plate reader (excitation wavelength 530 nm, emission wavelength 620 nm, Tecan Infinite M1000, Austria). Subsequently, the cells were lysed with 2% Triton X-100 diluted in DMEM (0.3% Triton X-100 per well, 15 min at 37°C, 5% CO2 and the PI fluorescence was measured again. The vitality of the cells was calculated by the ratio of dead cells (DC) before lyses and the total cell number (TCN) after lyses (1-DC/TCN).

CC(=O)O[C@H]1C(=O)[C@@]2(C)[C@H]([C@H](OC(=O)c3ccccc3)[C@]3(O)C[C@H](OC(=O)[C@H](O)[C@@H](NC(=O)c4ccccc4)c4ccccc4)C(C)=C1C3(C)C)[C@]1(OC(C)=O)CO[C@@H]1C[C@@H]2O [PTX, Paclitaxel]
cell morphology / mitosis in microscopy images ([1]; 10 µM): mitosis of HeLa cells was blocked | microtubule staining by Tubulin Tracker (fluorescence CLSM) ([1]; 10 µM): absence of the mitotic spindle stained with Tubulin Tracker | concentration triggering the multiple nuclei pattern ([1]; patterns similar between the compounds (Fig. 6)): 2 nM | solubility test (appearance of solution) ([2]; 10 µM in 1:1000 DMSO:PIPES buffer (80 mM, pH 6.8), time 1 hr): clear solution | solubility test (appearance of solution) ([2]; 10 µM in 1:1000 DMSO:PIPES buffer (80 mM, pH 6.8), time 8 hrs): clear solution | solubility test (appearance of solution) ([2]; 10 µM in 1:1000 DMSO:PIPES buffer (80 mM, pH 6.8), time 24 hrs): Suspension | solubility test (appearance of solution) ([2]; 10 µM in 1:1000 DMSO:PIPES buffer (80 mM, pH 6.8), time 30 hrs): white precipitate | solubility test (appearance of solution) ([2]; 10 µM in 1:1000 DMSO:PIPES buffer (80 mM, pH 6.8, 2 mM MgCl2, 1 mM EGTA), time 5 min): clear solution | Molar composition of a solution of 2',7-bisNvoc-PTX after irradiation ([3]; 360 nm (2.7 mW/cm^2), irradiation time 0 min): 0% | Molar composition of a solution of 2',7-bisNvoc-PTX after irradiation ([3]; 360 nm, irradiation time 60 min): 0% | Molar composition of a solution of 2',7-bisNvoc-PTX after irradiation ([3]; 360 nm, irradiation time 270 min): 1.7% | Molar composition of a solution of 2',7-bisNvoc-PTX after irradiation ([3]; 360 nm, irradiation time 450 min): 6.0% | Molar composition of a solution of 2',7-bisNvoc-PTX after irradiation ([3]; 360 nm, irradiation time 570 min): 10.6% | Molar composition of a solution of 2',7-bisNvoc-PTX after irradiation ([3]; 360 nm, irradiation time 735 min): 18.5% | Molar composition of a solution of 2',7-bisNvoc-PTX after irradiation ([3]; 360 nm, irradiation time 820 min): 21.2% | Molar composition of a solution of 2',7-bisNvoc-PTX after irradiation ([3]; 360 nm, irradiation time 1585 min): 60.5% | concentration at which cell vitality is significantly reduced [4]: 0.1 µM
